Results from patent publication US5180712A, “Petide antidementia and nootropic agents” (Fujirebio Kabushiki Kaisha, priority 1988, dated 1993).
Where a SMILES comes first, the peptide text is derived from it. Bridges are numbered along the chain shown (N, C = ends). Roman numbers before positions name the chains, in order. [ ]: non-standard residue; d: D form. The star is where a group is joined. Cys(free,S-linked) = N[C@@H](CS*)C(=O)O; pGlu = O=C1CC[C@@H](C(=O)O)N1

Tests used:
[1] = test system: male Wistar rats; experiment: one-trial passive avoidance: facilitation effect of memory consolidation; format: in vivo, rat; conditions: for Effect (ratio of the response latent period of each group to that of the control groups): retention tested 24 hours later, latency max 600 seconds
Method: The effect of peptides of the invention on memory consolidation was evaluated by conducting one-trial passive avoidance experiments using male Wistar rats in accordance with the method described by Burbach et al., Science, vol. 221, pp. 1310-1312, 1983. The apparatus was composed of an illuminated room and a dark room, and their floors were made of a stainless-steel grid. The rats placed in the illuminated room could freely enter the dark room. Upon entering the dark room the rats received an electro-shock. Retention of passive avoidance behavior to the electro-shock was determined by the measurement of a response latent period, i.e. the period required for the rat which experienced the electro-shock to re-enter the dark room from the time at which the rat was placed in the illuminated room after predetermined intervals. The rats were treated with the peptides of the invention obtained in the aforementioned Example 1 to 4 or a physiological saline solution by means of a subcutaneous injection immediately after receiving the electro-shock (0.25 mA). Then 24 hours later, the retention of the memory of the electro-shock was tested. […] Comparison Compound 2 (known peptide): [drawing 14] For each group, 6 to 8 rats were tested. The response latent period was measured up to a maximum of 600 seconds. The dose and the effect (the ratio of the response latent period of each group to that of the control groups, shown as %) of the peptides obtained in each example and the peptides of each comparison compound are set forth in Table 1.

[2] = test system: male Wistar rats; experiment: one-trial passive avoidance: improvement effect of experimental retrograde amnesia by cycloheximide; format: in vivo, rat; conditions: 1 hr before electro-shock (0.5 mA), cycloheximide 2.7 to 3.0 mg/kg s.c. after shock, tested at 48 hours
Method: The effect of peptides of the invention on memory consolidation was evaluated by conducting one-trial passive avoidance experiments using male Wistar rats in accordance with the method described by Burbach et al., Science, vol. 221, pp. 1310-1312, 1983. The apparatus was composed of an illuminated room and a dark room, and their floors were made of a stainless-steel grid. The rats placed in the illuminated room could freely enter the dark room. Upon entering the dark room the rats received an electro-shock. Retention of passive avoidance behavior to the electro-shock was determined by the measurement of a response latent period, i.e. the period required for the rat which experienced the electro-shock to re-enter the dark room from the time at which the rat was placed in the illuminated room after predetermined intervals. The rats received an electro-shock (0.5 mA) one hr. after the administration of the peptides of the invention or a physiological saline solution. Immediately after receiving the electro-shock, the rats were treated with 2.7 to 3.0 mg/kg of cycloheximide or the saline solution by subcutaneous injection. At 48 hours after the administration was made, memory retention of the rats was tested. […] The average response latent period of rats administered with each peptide of the invention and treated with cycloheximide were compared with that of the control group. Six to eight rats were used for each group tested. The response latent period was measured up to a maximum of 600 seconds. The dose and the effect (the ratio of response latent period of each group to that of the control groups, shown as %) of the peptides obtained in each example and the peptides of each comparison example are set forth in Table 2.

[3] = dose 1 ng/kg subcutaneous immediately after electro-shock (0.25 mA)

Structure (SMILES) | Effect (ratio of the response latent period of each group to that of the control groups) [1, 3] | Effect (ratio of response latent period of each group to that of the control groups) ([2]; dose 1 ng/kg) | dose giving the same effect, as fraction of the dose of Comparison Compound 1 ([1]; passive avoidance tests, versus Comparison Compound 1) | Effect (ratio of the response latent period of each group to that of the control groups) ([1]; dose 10 ng/kg subcutaneous immediately after electro-shock (0.25 mA)) | Effect (ratio of response latent period of each group to that of the control groups) ([2]; dose 100 ng/kg)
N=C(N)NCCC[C@H](NC(=O)[C@@H]1CCCN1C(=O)[C@H](CS)NC(=O)[C@@H](N)CC(N)=O)C(=O)O [Example 4, H-Asn-Cys-Pro-Arg-OH acetate] (H-NCPR-OH) | 316% | 320% | – | – | –
N=C(N)NCCC[C@@H](NC(=O)[C@@H]1CCCN1C(=O)[C@H](CSSC[C@H](N)C(=O)O)NC(=O)[C@H](CC(N)=O)NC(=O)[C@@H]1CCC(=O)N1)C(=O)NCC(N)=O [Example 1] ([pGlu]NC(Cys(free,S-linked))P[dR]G-NH2) | 267% | 302% | 1/10 | – | –
N=C(N)NCCC[C@H](NC(=O)[C@@H]1CCCN1C(=O)[C@H](CSSC[C@H](NC(=O)[C@H](CC(N)=O)NC(=O)[C@@H]1CCC(=O)N1)C(=O)N1CCC[C@H]1C(=O)N[C@@H](CCCNC(=N)N)C(=O)NCC(N)=O)NC(=O)[C@H](CC(N)=O)NC(=O)[C@@H]1CCC(=O)N1)C(=O)NCC(N)=O [Comparison 2, reference compound] (I: [pGlu]NCPRG-NH2 / II: [pGlu]NCPRG-NH2; disulfide I:3-II:3) | – | – | – | 249% | 503%
N=C(N)NCCC[C@H](NC(=O)[C@@H]1CCCN1C(=O)[C@H](CS)NC(=O)[C@H](CC(N)=O)NC(=O)[C@@H]1CCC(=O)N1)C(=O)NCC(N)=O [Example 2, pGlu-Asn-Cys-Pro-Arg-Gly--NH2 acetate] ([pGlu]NCPRG-NH2) | 295% | 633% | – | – | –
N=C(N)NCCC[C@H](NC(=O)[C@H]1CCCN1C(=O)[C@H](CSSC[C@H](N)C(=O)O)NC(=O)[C@H](CC(N)=O)NC(=O)[C@@H]1CCC(=O)N1)C(=O)NCC(N)=O [Example 3] ([pGlu]NC(Cys(free,S-linked))[dP]RG-NH2) | 253% | 380% | – | – | –
